{"source": "patent US5225425A", "about": "“Bis-aryl amide antagonists of platelet activating factor” (American Cyanamid Company, priority 1992, dated 1993)", "key": {"[1]": {"molecular_target": "T1, PAF receptor (Oryctolagus cuniculus, UniProt G1TEI7)", "T1 construct": "centrifuged at 800 rpm for 10-15 minutes at room temperature to recover the platelet rich plasma (PRP); from tissue; host or cells: platelets in platelet rich plasma from blood of male New Zealand White rabbits", "T1 sequence (G1TEI7 1-342)": "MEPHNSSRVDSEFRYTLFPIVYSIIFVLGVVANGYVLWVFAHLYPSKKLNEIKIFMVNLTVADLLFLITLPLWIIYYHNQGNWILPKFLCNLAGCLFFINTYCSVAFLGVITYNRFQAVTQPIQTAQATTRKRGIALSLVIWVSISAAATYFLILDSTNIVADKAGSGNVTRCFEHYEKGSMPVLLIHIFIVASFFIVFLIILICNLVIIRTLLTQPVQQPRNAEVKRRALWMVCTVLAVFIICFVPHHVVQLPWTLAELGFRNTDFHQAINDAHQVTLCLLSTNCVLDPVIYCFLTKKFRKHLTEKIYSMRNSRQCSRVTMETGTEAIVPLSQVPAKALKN", "experiment": "Inhibition of PAF induced platelet aggregation in rabbit platelet rich plasma", "assay_type": "cell-based, rabbit (New Zealand White)", "description": "Test compounds are evaluated as PAF receptor antagonists in vitro by measuring inhibition of PAF (platelet activating factor) induced platelet aggregation. Platelet aggregation is measured by a modification of the method described in […], et. al., J. Med. Chem., 27 1174, 1984. […] All syringes and pipets are plastic. The blood is gently mixed and immediately centrifuged at 800 rpm for 10-15 minutes at room temperature to recover the platelet rich plasma (PRP). Platelet poor plasma (PPP) is prepared by centrifuging PRP at 2800 rpm for 10 minutes at room temperature. Dilutions (1:3000) of PRP in Isotone diluent are made and platelet counts are determined on a Coulter Thrombocounter which is standardized with platelet reference standards (Interscience Platelet Control, Portland, Oreg.). PRP platelet counts are adjusted to approximately 400,000-500,000 platelets/μl by the addition of PPP. L-PAF (Platelet Activating Factor) is obtained from Calbiochem. […] All solutions are made up in plastic tubes, stored on ice and protected from heat and light. Solutions are prepared fresh or frozen at -20° C. and used within 48 hours. Incubation mixtures consisted of 400 μl PRP, 50 μl of saline diluent or test compound and 50 μl of PAF agonist. More specifically, 400μl of PRP is stabilized in a cuvette for 1-2 minutes at 37° C. in the aggregometer to achieve a stable baseline, then 50 μl of saline or test compound is added and incubated for 5 minutes before addition of the challenge concentration of pAF. A submaximal concentration is determined from the dose response curve for PAF for that experiment. In general, the challenge concentration is 5E-8 or 1E-7M. Aggregation is monitored for 5 minutes. Samples containing test compound or diluent are run simultaneously for comparison. Test compounds are initially evaluated at a screening concentration of 1E-5M. […] The recording equipment consists of a dual channel Chronolog aggregometer connected to a dual channel 10MV full scale deflection Omniscribe chart recorder (Houston Instruments). The chart recorder is calibrated daily with the use of a suspension of Bio-Rad latex beads (S-X 12 400 mesh) which has a density slightly greater than rabbit PRP. […] These limits defined a full scale deflection. The aggregation traces are analyzed by a digitizing method (C. Kohler and B. Zoltan, J. Pharm. Methods, 12, 113, 1984) with x, y coordinate data stored in a computer file. A suitable program computes parameters of interest such as the magnitude of aggregation."}, "[2]": {"test_system": "PAF", "experiment": "PAF induced lethality in mice", "assay_type": "in vivo", "conditions": "PAF 150 μg/kg IV", "description": "PAF given I.V. to mice causes an immediate hypotensive shock leading to death in 1 hour or less. […] Animals alive after 2 hours are counted and the activity of test compounds expressed as % survival corrected for any control (saline treated) animals which survived the PAF challenge."}, "[3]": {"test_system": "LPS endotoxin", "experiment": "High dose acute mouse endotoxemia (LPS endotoxin induced mortality)", "assay_type": "in vivo, Male Balb/c mice", "conditions": "for % Survival / survivors/total: i.p., LPS 50 mg/kg ip", "excerpt": "(§1) Endotoxin administration produces a shock-like state characterized by vascular permeability changes, hypotension, neutropenia, thrombocytopenia,multiple organ damage and death. The major mediators released after endotoxin injection are TNF (tumor necrosis factor), PAF (platelet activating factor) and […] (interleukin I). PAF administration mimics the signs and symptoms of endotoxin induced shock and death and endotoxin also induces the release of PAF. Therefore, the effects of endotoxin should be blocked with a PAF antagonist.\n(§2) Male Balb/c mice (approximately 20 g) are obtained from Charles River Laboratories and used after a one-two week acclimation period. Animals are given (ip) test compound dissolved in saline or water (sonicated and heated) at different time intervals prior to and after the ip injection of endotoxin (usually 2 hours before LPS endotoxin, and 3-4 hours after). Sigma E. Coli endotoxin, 0111:B4, phenol extraction, catalog #L2630 is used for these studies.\nThis LD value is approximately 50 mg/kg i.p. The number of survivors in each group (control or treated with test compound) is recorded after 24, 48 or 72 hours and the treated groups (receiving test compound and endotoxin) are compared with the untreated, control group (receiving endotoxin only) or saline control (receiving saline and endotoxin).\nLPS Endotoxin challenge = 50 mg/kg ip\nTest cpd given 2 hrs. before and 3-4 hrs. after LPS challenge on day 0,\nfollowed by BID dosing for 3-4 days."}, "[4]": {"test_system": "LPS endotoxin", "experiment": "Low dose, chronic mouse endotoxemia (LPS endotoxin)", "assay_type": "in vivo, Male Balb/c mice", "conditions": "dose 10 mg/kg i.p.; day 6; LPS 20 mg/kg i.p.", "excerpt": "as §1, §2\nFor the chronic endotoxin shock model, a lower dose of endotoxin is administered (generally 15 to 20 mg/kg i.p). This dose gives an LD80 in two to four days following LPS administration. Test compounds are given 2 hours before LPS and 3-4 hours after on the first day, followed by 3 or 4 consecutive days of BID dosing. The number of survivors in each group is recorded each day for a period of 5 to 7 days.\nAll mice challenged with LPS endotoxin = 20 mg/kg i.p.\nCL test cpd given 2 hours before and 3-4 hours after LPS challenge on day\n0, followed by BID dosing for 3-4 days."}}, "note": "Several values for one entry are separate records, joined by “and”; a condition that tells them apart may be missing. Equal entries are not always repeated.", "data": [{"smiles": "CCCCCCCCCCCCCCOc1cccc(CC(=O)Nc2cccc(C[n+]3csc(C)c3)c2)c1.[Br-]", "note": "[5-methyl-3-[[3-[[[3-(tetradecyloxy)phenyl]acetyl]amino]phenyl]methyl]thiazolium bromide]", "values": [{"measurement": "IC50", "setting": "[1]; PAF challenge 5.0000E-08 M", "value": "490 nM and 1270 nM"}, {"measurement": "IC50", "setting": "[1]; PAF challenge 5E-9 M", "value": 1060, "unit": "nM"}, {"measurement": "inhibition at 10 µM", "setting": "[1]; dose .00001 M, PAF challenge 5E-9 M, read-out: % INH of PAF induced platelet aggregation", "value": 100, "unit": "%"}, {"measurement": "% Survival", "setting": "[2]; 5 mg/kg P.O.", "value": 40, "unit": "%"}, {"measurement": "% Survival", "setting": "[2]; 20 mg/kg P.O.", "value": 59, "unit": "%"}, {"measurement": "% Survival", "setting": "[3]; day 0", "value": 100, "unit": "%"}, {"measurement": "survivors/total", "setting": "[3]; day 0", "value": "30/30"}, {"measurement": "% Survival", "setting": "[3]; day 1", "value": 40, "unit": "%"}, {"measurement": "survivors/total", "setting": "[3]; day 1", "value": "12/30"}, {"measurement": "% Survival", "setting": "[3]; day 2", "value": 13, "unit": "%"}, {"measurement": "survivors/total", "setting": "[3]; day 2", "value": "4/30"}, {"measurement": "% Survival", "setting": "[3]; day 3", "value": 10, "unit": "%"}, {"measurement": "survivors/total", "setting": "[3]; day 3", "value": "3/30"}, {"measurement": "% Survival", "setting": "[3]; day 4", "value": 10, "unit": "%"}, {"measurement": "survivors/total", "setting": "[3]; day 4", "value": "3/30"}, {"measurement": "activity when administered ip prior to a lethal ip injection of endotoxin", "setting": "[3]; ip, in words", "value": "some activity"}, {"measurement": "% Survival", "setting": "[4]", "value": 43, "unit": "%"}]}]}
